Measured values: patent publication US7632863B2, “3,4,5,4′-tetramethoxyl-α,β-diphenylethane-3′-O-sodium sulphate and its use” (The Jian Cell Biomedical Research Co., Ltd., priority 2007, dated 2009)
Entries after “also recorded” stand apart in the source; their conditions may differ. Like-named read-outs stand apart in the source and are kept apart here.

Columns and labels:
[1] = system: S180 sarcoma; details: for Tumor inhibiting rate % / Tumor weight / 0 d weight / 11 d weight without tumor: i.v., S180 sarcoma-bearing mice
Source text: (§1) (1) Sample: 3,4,5,4′-tetramethoxyl-α,β-diphenylethane-3′-O-sodium sulphate (AS) provided by Zhejiang Cell Biomedical Research Co., Ltd., and prepared by the process in Example One. Dissolved by physiological saline for the concentration needed.
(2) Cisplatin: Cisplatin for injection (DDP), Qilu Pharmaceutical Co., Ltd. Batch No.: 5120282DC. Dissolved by physiological saline for preparation.
(3) Control product: Cyclophosphamide for injection (CTX), Jiangsu Hengrui Pharmaceutical Inc. Co. Batch No.: 04123021 Dissolved by physiological saline for preparation.
(§2) (1) KM mouse bearing S180 sarcoma.
(2) 70 KM mice, female, weighting 18-22 g, provided by Zhejing College of Traditional Chinese Medicine.
(1) Drawing ascites under aseptic condition from mouse bearing S180 sarcoma, diluting with physiologic saline 1:3, giving subcutaneous inoculation in the armpit of the right forelimb of the KM mice with 0.2 ml each; dividing the mice into 7 groups randomly the next day, 10 in each group.
(§3) (2) Administering drug to the mice by weight the third day of inoculation, intravenous administration 0.5 ml/20 g […], by weight, and putting them to death on the 11th day after inoculation, weighing the tumor and calculating the rate of tumor inhibition.
(§4) (3) dosage (mg/kg/d) and means of administration:
(§5) AS: 50 mg/kg, tail vein injection
(§6) AS: 100 mg/kg, tail vein injection
(§7) AS: 200 mg/kg, tail vein injection
DDP: 1 mg/kg, tail vein injection
AS+DDP: 50 mg/kg+1 mg/kg, tail vein injection
(§8) CTX: 30 mg/kg, tail vein injection
(§9) Setting up another blank control group, tail vein injection of 0.9% NaCl 0.5 ml.
(§10) (4) Judging the result with the following formula: […]

[2] = system: Lewis lung cancer; assay: Joint administration of AS and DDP, murine model of Lewis lung cancer (Example Five); assay type: in vivo, C57BL/6J mice; details: for Tumor inhibiting rate % / Tumor weight: mice bearing Lewis lung cancer
Source text: (1) Sample: 3,4,5,4′-tetramethoxyl-α,β-diphenylethane-3′-O-sodium sulphate (AS), raw material medicine, provided by Zhejiang Cell Biomedical Research Co., Ltd., and prepared by the process in Example One. Batch No.: 061025. Dissolved by physiological saline for the concentration needed.
(2) Cisplatin: Cisplatin for injection (DDP), Qilu Pharmaceutical Co., Ltd. Batch No.: 5120282DC; Dissolved by physiological saline for preparation
(3) Control product: Cyclophosphamide for injection (CTX), Jiangsu Hengrui Pharmaceutical Inc. Co. Batch No.: 04123021. Dissolved by physiological saline for preparation.
(1) C57BL/6J mouse bearing Lewis lung cancer
(2) 70 C57BL/6J mice, female, weighing 17-21 g. Provided by the animal house of Zhejiang Cell Biomedical Research Co., Ltd.
(1) Taking tumor from C57BL/6J mouse under aseptic condition, grinding and diluting it by physiological saline 1:3 (weight:volume), and giving hypodermic inoculation 0.2 ml per mouse in the armpit of the right forelimb of each mouse. dividing the mice into 7 groups randomly the next day, 10 in each group.
(2) After inoculation, waiting till the tumor has grown to the accessible size, administering medicine according to body weight, 0.5 ml/20 g intravenous, for 11 days, putting the mice to death on the 19th after inoculation, taking out and weighing the tumor, and calculating the tumor inhibiting rate.
as §10

[3] = background statement, species and route not given; cited from earlier work
[4] = system: S180 sarcoma; details: for 0 d weight / 11 d weight without tumor / Tumor inhibiting rate % / Tumor weight: i.v., S180 sarcoma-bearing mice
Source text: as §1
(2) Control product: Cyclophosphamide for injection (CTX), Jiangsu Hengrui Pharmaceutical Inc. Co. Batch No.: 04123021 Dissolved by physiological saline for preparation.
as §2
(2) 50 KM mice, female, weighting 18-22 g, provided by Zhejing College of Traditional Chinese Medicine.
(1) Drawing ascites under aseptic condition from mouse bearing S180 sarcoma, diluting with physiologic saline 1:3, giving subcutaneous inoculation in the armpit of the right forelimb of the KM mice with 0.2 ml each; dividing the mice into 5 groups randomly the next day, 10 in each group.
as §3, §4, §5, §6, §7, §8, §9, §10

[5] = Water solubility; assay type: physicochemical
[6] = system: KunMing (KM) mice; assay: LD50 determination, tail vein injection; assay type: in vivo; details: for Death rate in total % Total / Death rate in total % ♀ / Death rate in total % ♂ / Deaths days 1 ♀ / Deaths days 1 ♂ / Deaths days 2 ♀ / Deaths days 2 ♂ / Deaths days 3 ♀ / Deaths days 3 ♂ / Deaths days 4 ♀ / Deaths days 4 ♂ / Deaths hours 0-4 ♀ / Deaths hours 0-4 ♂: tail vein injection
Description: (§11) 1. Experimental animal: KunMing (KM) mice, provided by Shanghai Slac Laboratory Animal Co., Ltd., half and half of female and male, 6 groups, ten in each group, marked by bitter acid.
(§12) 2. […] Preparing medical solution of equal ratio: dissolving with 0.9% NaCl to prepare the medical solution with the concentration of 336 mg/7 ml, 316.96 mg/7 ml, 299.32 mg/7 ml, 282.52 mg/7 ml, 266.84 mg/7 ml, 252 mg/7 ml.
(§13) 3. Dosage for administration: with 0.5 ml/20 g bottom up.
(§14) 4. Means of administration: tail vein injection
(§15) 5. Experimental method: observing at 0.25 h, 0.5 h, 1 h, 2 h, 4 h, 24 h respectively after administration; then observing once every day 14 days; putting the mice still alive to death on the 15th day and recording the death rate.

[7] = LD50 determination, tail vein injection; assay type: in vivo, mice; details: both sexes, KunMing (KM), mouse, in vivo, intravenous, KM mice, tail vein injection
Description: as §11, §12, §13, §14, §15

## N.N.[Cl][Pt][Cl] [DDP, Cisplatin, reference compound]
[1]; Dosage 30 mg/kg
  Tumor inhibiting rate %: 70%
  Tumor weight: 0.88 ± 0.50 g
[2]; Dosage 1 mg/kg, i.v.
  Tumor inhibiting rate %: 46.4%
  Tumor weight: 2.52 ± 0.80 g

## COc1ccc(/C=C\c2cc(OC)c(OC)c(OC)c2)cc1O [Combretastatin A-4]
[3]
  LD50: 500 mg/kg

## COc1ccc(CCc2cc(OC)c(OC)c(OC)c2)cc1OS(=O)(=O)[O-].[Na+] [AS, 3,4,5,4′-tetramethoxyl-α,β-diphenylethane-3′-O-sodium sulphate]
[1]; Dosage 50 mg/kg
  0 d weight: 21.06 ± 0.82 g
  11 d weight without tumor: 25.89 ± 3.32 g
  Tumor inhibiting rate %: 44%
  Tumor weight: 1.63 ± 1.43 g
[1]; Dosage 100 mg/kg
  0 d weight: 20.46 ± 1.03 g
  11 d weight without tumor: 28.42 ± 4.13 g
  Tumor inhibiting rate %: 29%
  Tumor weight: 2.07 ± 1.03 g
[1]; Dosage 200 mg/kg
  0 d weight: 20.45 ± 0.86 g
  11 d weight without tumor: 27.10 ± 2.44 g
  Tumor inhibiting rate %: 54%
  Tumor weight: 1.34 ± 0.53 g
[1]; joint administration with DDP
  effect in inhibiting S180 tumors (in words): fine coordinating effect; also recorded: excellent coordinating effect
[4]; Dosage 50 mg/kg
  0 d weight: 21.06 ± 0.82 g
  11 d weight without tumor: 25.89 ± 3.32 g
  Tumor inhibiting rate %: 44%
  Tumor weight: 1.63 ± 1.43 g
[4]; Dosage 100 mg/kg
  0 d weight: 20.46 ± 1.03 g
  11 d weight without tumor: 28.42 ± 4.13 g
  Tumor inhibiting rate %: 29%
  Tumor weight: 2.07 ± 1.03 g
[4]; Dosage 200 mg/kg
  0 d weight: 20.45 ± 0.86 g
  11 d weight without tumor: 27.10 ± 2.44 g
  Tumor inhibiting rate %: 54%
  Tumor weight: 1.34 ± 0.53 g
[4]; result analysis
  inhibitory effect on S180 tumors (in words): excellent inhibitory effect
[2]; Dosage 50 mg/kg, i.v.
  Tumor inhibiting rate %: 35.5%
  Tumor weight: 3.03 ± 0.55 g
[2]; Dosage 100 mg/kg, i.v.
  Tumor inhibiting rate %: 36.4%
  Tumor weight: 2.99 ± 0.50 g
[2]; Dosage 200 mg/kg, i.v.
  Tumor inhibiting rate %: 52.1%
  Tumor weight: 2.25 ± 0.75 g
[2]; alone
  inhibiting the tumor in murine model of Lewis lung cancer (in words): quite effective
[2]; joint administration with DDP
  inhibiting the tumors in murine model of Lewis lung cancer (in words): certain coordinated effect
[5]
  water solubility (in words): good water solubility
[6]; 900 mg/kg
  Death rate in total % Total: 0%
  Death rate in total % ♀: 0%
  Death rate in total % ♂: 0%
  Deaths days 1 ♀: 0
  Deaths days 1 ♂: 0
  Deaths days 2 ♀: 0
  Deaths days 2 ♂: 0
  Deaths days 3 ♀: 0
  Deaths days 3 ♂: 0
  Deaths days 4 ♀: 0
  Deaths days 4 ♂: 0
  Deaths hours 0-4 ♀: 0
  Deaths hours 0-4 ♂: 0
[6]; 953 mg/kg
  Death rate in total % Total: 0%
  Death rate in total % ♀: 0%
  Death rate in total % ♂: 0%
  Deaths days 1 ♀: 0
  Deaths days 1 ♂: 0
  Deaths days 2 ♀: 0
  Deaths days 2 ♂: 0
  Deaths days 3 ♀: 0
  Deaths days 3 ♂: 0
  Deaths days 4 ♀: 0
  Deaths days 4 ♂: 0
  Deaths hours 0-4 ♀: 0
  Deaths hours 0-4 ♂: 0
[6]; 1009 mg/kg
  Death rate in total % Total: 40%
  Death rate in total % ♀: 20%
  Death rate in total % ♂: 60%
  Deaths days 1 ♀: 0
  Deaths days 1 ♂: 0
  Deaths days 2 ♀: 0
  Deaths days 2 ♂: 0
  Deaths days 3 ♀: 0
  Deaths days 3 ♂: 0
  Deaths days 4 ♀: 0
  Deaths days 4 ♂: 0
  Deaths hours 0-4 ♀: 1
  Deaths hours 0-4 ♂: 3
[6]; 1069 mg/kg
  Death rate in total % Total: 80%
  Death rate in total % ♀: 80%
  Death rate in total % ♂: 80%
  Deaths days 1 ♀: 0
  Deaths days 1 ♂: 0
  Deaths days 2 ♀: 0
  Deaths days 2 ♂: 0
  Deaths days 3 ♀: 0
  Deaths days 3 ♂: 0
  Deaths days 4 ♀: 0
  Deaths days 4 ♂: 0
  Deaths hours 0-4 ♀: 4
  Deaths hours 0-4 ♂: 4
[6]; 1132 mg/kg
  Death rate in total % Total: 60%
  Death rate in total % ♀: 60%
  Death rate in total % ♂: 60%
  Deaths days 1 ♀: 0
  Deaths days 1 ♂: 0
  Deaths days 2 ♀: 0
  Deaths days 2 ♂: 0
  Deaths days 3 ♀: 0
  Deaths days 3 ♂: 0
  Deaths days 4 ♀: 0
  Deaths days 4 ♂: 0
  Deaths hours 0-4 ♀: 3
  Deaths hours 0-4 ♂: 3
[6]; 1200 mg/kg
  Death rate in total % Total: 70%
  Death rate in total % ♀: 40%
  Death rate in total % ♂: 100%
  Deaths days 1 ♀: 0
  Deaths days 1 ♂: 0
  Deaths days 2 ♀: 0
  Deaths days 2 ♂: 0
  Deaths days 3 ♀: 0
  Deaths days 3 ♂: 0
  Deaths days 4 ♀: 0
  Deaths days 4 ♂: 0
  Deaths hours 0-4 ♀: 2
  Deaths hours 0-4 ♂: 5
[6]; conclusion from LD50
  toxicity (in words): very low
[7]; observed 14 days, read-out: LD50
  LD50 at 14 days: 1080 mg/kg
[7]; read-out: LD50 (Feiller correction) 95% confidence interval
  LD50 at 14 days: 1030 to 1130 mg/kg

## O=P1(N(CCCl)CCCl)NCCCO1 (centres unmarked) [CTX, Cyclophosphamide, reference compound]
[1]; Dosage 1 mg/kg
  0 d weight: 21.18 ± 0.64 g
  11 d weight without tumor: 26.28 ± 1.72 g
  Tumor inhibiting rate %: 69%
  Tumor weight: 0.90 ± 0.26 g
[4]; Dosage 1 mg/kg
  0 d weight: 21.18 ± 0.64 g
  11 d weight without tumor: 26.28 ± 1.72 g
  Tumor inhibiting rate %: 69%
  Tumor weight: 0.90 ± 0.26 g
[2]; Dosage 30 mg/kg, i.p.
  Tumor inhibiting rate %: 64.3%
  Tumor weight: 1.68 ± 0.15 g
